{"source": "paper PMC4015918", "about": "“Conjugation to a SMAC mimetic potentiates sigma-2 ligand induced tumor cell death in ovarian cancer” (Molecular Cancer, 2014)", "key": {"[1]": {"system": "SKOV3 cells", "assay": "Blocking study: competition with uptake of fluorescent sigma-2 ligand SW120, flow cytometry", "assay_type": "cell-based", "details": "SKOV3 cells pretreated 30 min with increasing concentrations, then 10 nM SW120 for 30 min", "protocol": "Figure 1 Compound structures and cell binding characteristics of SW IV-134. (A) The chemical structures of sigma-2 ligand SW43, the SMAC peptidomimetic SW IV-52, and the chemical conjugate SW IV-134. Note that the chirality of SW IV-52 is fully retained in the drug conjugate (asterisks). […] SKOV3 cells were pretreated with increasing concentration of SW IV-134, followed by incubation with SW120, prior to analysis by flow cytometry.\nSKOV3 cells (3 × 10^4/well) were seeded into 6 cm plates for 24 hours before treatment. The cells were incubated with 5, 10, 50, and 100 μM doses of SW IV-134 for 30 minutes at 37°C. After this step, 10 nM SW120 was added to the cell culture medium containing SW IV-134. After 30 minute incubation at 37°C, cells were washed twice with phosphate buffered saline (PBS) and harvested with 0.05% trypsin EDTA (Life Technologies, Grand Island, NY). The cells were centrifuged at 1000 × g for 5 minutes and pellets washed twice with PBS. Internalization of SW120 was determined by flow cytometer (FACSCalibur, BD Biosciences, San Jose, CA).\nSupplementary file 1476-4598-13-50-S2.pdf: Additional file 2: Figure S1 Receptor binding characteristics of the individual components of SW IV-134. SKOV3 cells were pretreated with increasing concentration of (A) SW43 and (B) SW IV-52, followed by incubation with SW120, prior to analysis by flow cytometry. […] Click here for file"}, "[2]": {"system": "ovarian cancer cell lines (SKOV3, OVCAR3, HEY A8, HEY A8 MDR)", "assay": "Cell viability (CellTiter-Glo) in a panel of four ovarian cancer cell lines", "assay_type": "cell-based", "details": "increasing doses, 18 hours", "protocol": "(A) SKOV3, (B) OVCAR3 (C) HEY A8 and (D) HEY A8 MDR cells were treated with increasing doses of SW43, SW IV-52, SW43 plus SW IV-52, and SW IV-134 for 18 hours. Cell viability was determined by CellTiter-Glo assays [p < 0.015 (A), NS (B), p < 0.017 (C), p < 0.034 (D), one-way ANOVA].\nCells (1 × 10^4) were seeded into 96 well plates. Treatment as described in the figure legends was initiated the following day. Cell viability was determined 18 hours after treatment using CellTiter-Glo Luminiscent Viability Assay (Promega, Madison, WI). Data were recorded with a SpectraMax Gemini microplate spectrofluorometer, Molecular Devices (Silicon Valley, CA)."}, "[3]": {"target": "T1, sigma-2 receptor (Rattus norvegicus, UniProt Q5U3Y7)", "T1 construct": "guinea pig brain (sigma-1 assay) or rat liver (sigma-2 assay) membrane homogenates; from tissue; host or cells: rat liver membrane homogenate", "T1 sequence (Q5U3Y7 1-176)": "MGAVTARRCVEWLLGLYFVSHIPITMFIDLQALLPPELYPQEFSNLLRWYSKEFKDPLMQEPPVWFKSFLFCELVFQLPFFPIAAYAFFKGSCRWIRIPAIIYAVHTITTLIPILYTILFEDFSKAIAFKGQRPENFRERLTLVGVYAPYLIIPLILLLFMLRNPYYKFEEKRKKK", "assay": "Sigma-2 receptor binding, [3H](+)-DTG displacement in rat liver membrane homogenates", "protocol": "In order to verify its unaltered target recognition properties, the binding affinity of SW IV-134 to the sigma-2 receptor was determined using previously established methods employing rat liver membrane homogenates (see M&M and Ref [19] for details on receptor binding determinations). […] As another means to probe for the ability of SW IV-134 to bind to the sigma-2 receptor, we performed a competition assay using intact ovarian cancer cells and the fluorescently labeled SW43 homolog SW120 [21].\nThe sigma-1 and sigma-2 receptor binding affinities of SW IV-134 were determined as previously described. […] Each filter was washed three times with 200 μL of ice-cold wash buffer, and the bound radioactivity quantified using a Wallac 1450 MicroBeta liquid scintillation counter (Perkin Elmer, Boston, MA). Nonspecific binding was determined in the presence of 10 μM cold haloperidol. […]\nTable S1. […] The sigma-1 and sigma-2 receptor binding affinities of S W I V-134 were determined as previously described (22). For details see also the Materials and Methods section. a Mean ± S .E .M .K i values were determined by at least three ex periments. b Ki for inhibiting the binding of [ 3H] […]"}}, "data": [{"smiles": "COc1ccc(C)cc1NC(=O)OC1CC2CCCC(C1)N2CCCCCCCCCCN", "note": "(stereo not drawn) [SW43, reference compound]", "values": [{"measurement": "Blocking of SW120 uptake", "setting": "[1]", "value": "prevents uptake of the fluorescently labeled sigma-2 ligand SW120 in a dose-dependent fashion"}, {"measurement": "Killing activity (cell viability)", "setting": "[2]", "value": "effective against different ovarian cancer cell lines"}, {"measurement": "Ki", "setting": "[3]", "value": "7.1 ± 1.3", "unit": "nM"}]}, {"smiles": "COc1ccc(C)cc1NC(=O)OC1CC2CCCC(C1)N2CCCCCCCCCCN[C@@H](C)C(=O)N[C@H](C(=O)N1CCC[C@H]1C(=O)N[C@@H]1CCCc2ccccc21)C(C)(C)C", "note": "(stereo partly drawn) [SW IV-134]", "values": [{"measurement": "Blocking of SW120 uptake", "setting": "[1]", "value": "dose-dependent reduction of SW120 signal intensity"}, {"measurement": "Killing activity (cell viability)", "setting": "[2]", "value": "greater cytotoxicity"}, {"measurement": "Ki", "setting": "[3]", "value": "22.6 ± 1.8", "unit": "nM"}]}]}
